# Measured values: US20100048523A1, “Compounds, Compositions and Methods for Treating Hormone-Dependent Maladies” (priority 2006, published 2010)
# Columns and labels:
# [1] = system: p21−/− MCF-10A breast cancer cell lines; assay: High-throughput cell-based growth inhibition screen, p21 knock-out (Erik) vs parental (Erin) cell lines; set-up: species or system human
# [2] = system: MCF-10A p21 knock out cell lines (ERα positive); assay: Growth assay (crystal violet) of ERα positive MCF-10A p21−/− cells; assay type: cell-based, human; conditions: for growth (cell proliferation) in response to the substance: ERα positive MCF-10A p21−/− (p21 null)
# Description: (§1) ERα positive MCF-10A (ERIN#9), pIRESpuro2 transfection control (−) control, and ERα positive MCF-10A p21−/− (1.6#4) cell lines were seeded in assay media (no EGF) and exposed to estrogen (E2), vehicle only, estrogen and Tamoxifen (E2+Tam), estrogen and Faslodex (E2+ICI), Tamoxifen alone (Tam) and Faslodex alone (ICI). Cells were grown for 1 week and stained with crystal violet. Results are representative of multiple clones including heterozygous controls, and assays were repeated three times for each clone.
# (§2) The creation of a non-tumorigenic human breast epithelial cell line (MCF-10A) in which the p21 gene was deleted through targeted homologous recombination has been previously described. Because p21 has been implicated in Tamoxifen resistance, and the response of Tamoxifen in both parental MCF-10A cells and their p21−/− derivatives was assessed. MCF-10A cells are ERα negative and unresponsive to estrogen stimulation. In order to develop a model system to analyze the effects of estrogen and anti-estrogen signaling, MCF-10A cells and their p21−/− derivatives were stably transfected with a cDNA encoding for wild type ERα.
# (§3) Unlike previous attempts to stably integrate ERα into the MCF-10A cell line, a cloning vector containing an internal ribosome entry site (IRES) was used to ensure high levels of wild type ERα expression. The full coding sequence of wild type ERα was PCR cloned into pIRESpuro2 (Clontech) and the absence of any coding mutations was verified by direct sequencing.
# (§4) Cell lines were generated and grown with charcoal stripped dextran treated serum (Hyclone) and phenol red free medium to avoid any possible growth effects of estrogen in the medium.
# [3] = system: MCF-10A cells stably overexpressing ERα; assay: Growth assay (crystal violet) of ERα positive MCF-10A cells; assay type: cell-based, human; conditions: for effect on estrogen-induced proliferation: ERα positive MCF-10A (p21+/+), with estrogen
# Description: as §1, §2, §3, §4
# [4] = system: metastatic breast cancer (skin); assay: Case report: metastatic breast cancer (skin) nodule under Tamoxifen; assay type: in vivo, human
# [5] = system: ER/PR positive breast cancers; conditions: adjuvant setting; cited from earlier work
Compound,targeting of tamoxifen resistant ER positive cells [1],effect on estrogen-induced proliferation [3],growth (cell proliferation) in response to the substance [2],other results
CC12CCC3c4ccc(O)cc4CCC3C1CCC21OCCO1 (stereo not shown) [Compound 233-D4],target tamoxifen resistant ER positive cells,–,–,–
CC(=O)Oc1ccc2c(c1)CCC1C2CC[C@@]2(C)C1CCC21OCCO1 (stereo partly shown) [Compound 233-E09],target tamoxifen resistant ER positive cells,–,–,–
"C[C@]12CC[C@@H]3c4ccc(O)cc4C[C@@H](CCCCCCCCC[S+]([O-])CCCC(F)(F)C(F)(F)F)[C@H]3[C@@H]1CC[C@@H]2O (stereo partly shown) [Faslodex, fulvestrant]",–,inhibited,–,"effect on proliferative effects of estrogen ([2]; p21−/− cell lines, with estrogen): could still inhibit"
O=C(c1ccc(OCCN2CCCCC2)cc1)c1c(-c2ccc(O)cc2)sc2cc(O)ccc12 [Raloxifene],–,behaved identically to Tamoxifen,not as pronounced as Tamoxifen's,–
CC/C(=C(\c1ccccc1)c1ccc(OCCN(C)C)cc1)c1ccccc1 [Tamoxifen],–,inhibited,grew in response,"behaviour of recurrent skin nodule during Tamoxifen ([4]; 2003, in the presence of Tamoxifen): growing in the presence of Tamoxifen; behaviour of skin nodule after Tamoxifen cessation ([4]; one month after Tamoxifen cessation): went away after cessation; reduction of the risk of recurrence [5]: ≤ 47%; growth inhibitory effect on p21 knock out cells ([2]; ERα positive MCF-10A p21−/−): resistant to the growth inhibitory effects"
estrogen,–,–,–,"proliferation in response to the substance ([3]; ERα positive MCF-10A, assay media without EGF, 1 week): proliferated in response to estrogen"
